Source: patent publication US20230233569A1 (Revolution Medicines, Inc., priority 2020, published 2023)
Where “and” joins values, the source holds several entries; their conditions need not be identical. Equal values may be shown once. Read-outs that look alike come from different tables or passages of the source.

Key:
[1] = test system: NCI-H358 (K-Ras G12C); assay: CellTiter-Glo cell viability assay, 5-day treatment; type: cell-based; settings: Homo sapiens, NCI-H358, H358, K-Ras G12C; read-out: Additional H358 Cell Viability assay data (K-Ras G12C, IC50)
Method in brief: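 Compounds were dispensed directly onto seeded cells and incubated for 5 days, then plates were equilibrated to room temperature for about 30 minutes before luminescence reading. Signals were expressed as percent of the mean DMSO control and fitted with a four-parameter logistic curve.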

[2] = biological target: NRAS Q61R (Homo sapiens, UniProt P01111+P62937, Q61R); assay: Disruption of BRAF RBD interaction with Ras (FRET / MOA assay, with Cyclophilin A); type: biochemical; settings: NRAS Q61R; read-out: NRAS Q61R FRET data IC50
Description: (§1) Disruption of B-Raf Ras-Binding Domain (BRAF^RBD) Interaction with K-Ras by Compounds of the Invention (Also Called a FRET Assay or an MOA Assay)
(§2) Note—The following protocol describes a procedure for monitoring disruption of K-Ras G12C (GMP-PNP) binding to BRAF^RBD by a compound of the invention. This protocol may also be executed substituting other Ras proteins or nucleotides.
(§3) The purpose of this biochemical assay was to measure the ability of test compounds to facilitate ternary complex formation between a nucleotide-loaded K-Ras isoform and Cyclophilin A; the resulting ternary complex disrupts binding to a BRAF^RBD construct, inhibiting K-Ras signaling through a RAF effector. Data is reported as IC50 values.
(§4) In assay buffer containing 25 mM HEPES pH 7.3, 0.002% Tween20, 0.1% BSA, 100 mM NaCl and 5 mM MgCl2, tagless Cyclophilin A, His6-K-Ras-GMPPNP, and GST-BRAF^RBD were combined in a 384-well assay plate at final concentrations of 25 μM, 12.5 nM and 50 nM, respectively. Compound was present in plate wells as a 10-point 3-fold dilution series starting at a final concentration of 30 μM. After incubation at 25° C. for 3 hours, a mixture of Anti-His Eu-W1024 and anti-GST allophycocyanin was then added to assay sample wells at final concentrations of 10 nM and 50 nM, respectively, and the reaction incubated for an additional 1.5 hours. […] Compounds that facilitate disruption of a K-Ras:RAF complex were identified as those eliciting a decrease in the TR-FRET ratio relative to DMSO control wells.
as §3, with “BRAF^RBDD” for “BRAF^RBD”

[3] = biological target: NRAS Q61K (Homo sapiens, UniProt P01111+P62937, Q61K); assay: as above; type: biochemical; settings: NRAS Q61K; read-out: NRAS Q61K FRET data IC50
Description: as §1, §2, §3, §4
as §3, with “BRAF^RBDD” for “BRAF^RBD”

[4] = biological target: KRAS Q61H (Homo sapiens, UniProt P01116+P62937, Q61H); assay: as above; type: biochemical; settings: KRAS Q61H; read-out: KRAS Q61H FRET data IC50
Description: as §1, §2, §3, §4
as §3, with “BRAF^RBDD” for “BRAF^RBD”

[5] = biological target: KRAS G12V (Homo sapiens, UniProt P01116+P62937, G12V); assay: as above; type: biochemical
Method in brief: (§5)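 Compound-driven ternary complex formation between nucleotide-loaded K-Ras and Cyclophilin A was measured as loss of BRAF RBD binding. Compounds (10-point 3-fold series, top 30 μM final) were incubated 3 h at 25 °C, then anti-His Eu-W1024 (10 nM) and anti-GST allophycocyanin (50 nM) added for 1.5 h. IC50 was taken from the TR-FRET ratio decrease versus DMSO.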

[6] = biological target: KRAS G12C (Homo sapiens, UniProt P01116+P62937, G12C); assay: as above; type: biochemical
Method in brief: as §5

[7] = biological target: KRAS G13C (Homo sapiens, UniProt P01116+P62937, G13C); assay: as above; type: biochemical
Method in brief: as §5

[8] = biological target: KRAS G12D (Homo sapiens, UniProt P01116+P62937, G12D); assay: as above; type: biochemical
Method in brief: as §5

[9] = biological target: NRAS G12C (Homo sapiens, UniProt P01111+P62937, G12C); assay: as above; type: biochemical
[10] = biological target: KRAS G12S (Homo sapiens, UniProt P01116+P62937, G12S); assay: as above; type: biochemical
Method in brief: as §5

[11] = biological target: KRAS G13D (Homo sapiens, UniProt P01116+P62937, G13D); assay: as above; type: biochemical
Method in brief: as §5

[12] = biological target: KRAS WT (Homo sapiens, UniProt P01116+P62937); assay: as above; type: biochemical; settings: KRAS WT; read-out: KRAS WT FRET data IC50
Method in brief: as §5

[13] = KRAS G12V, read-out: KRAS G12V FRET data IC50
[14] = KRAS G12C, read-out: KRAS G12C FRET data IC50
[15] = KRAS G13C, read-out: KRAS G13C FRET data IC50
[16] = read-out: KRAS G12D FRET data, IC50
[17] = read-out: KRAS G12S FRET data, IC50

Chain of KRAS G12S (P01116 1-169 isoform P01116-2 G12S limits assumed): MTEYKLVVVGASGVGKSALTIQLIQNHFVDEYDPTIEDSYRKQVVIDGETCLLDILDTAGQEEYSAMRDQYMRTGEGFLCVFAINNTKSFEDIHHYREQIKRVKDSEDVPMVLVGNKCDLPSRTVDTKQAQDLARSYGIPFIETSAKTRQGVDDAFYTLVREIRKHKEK
Chain of KRAS G12S (P62937 whole entry): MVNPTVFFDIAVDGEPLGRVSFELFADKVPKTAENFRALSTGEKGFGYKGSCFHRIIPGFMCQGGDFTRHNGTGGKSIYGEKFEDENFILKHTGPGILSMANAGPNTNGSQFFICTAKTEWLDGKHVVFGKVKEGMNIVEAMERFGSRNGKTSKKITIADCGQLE
Chain of NRAS Q61K (P01111 whole entry Q61K): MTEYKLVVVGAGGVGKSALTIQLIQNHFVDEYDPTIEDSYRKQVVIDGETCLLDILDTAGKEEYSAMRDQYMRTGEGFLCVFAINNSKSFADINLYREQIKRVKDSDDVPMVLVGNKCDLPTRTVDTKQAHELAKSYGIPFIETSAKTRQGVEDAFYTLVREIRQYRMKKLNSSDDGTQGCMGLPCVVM
Chain of NRAS Q61K (P62937 whole entry): as the sequence (P62937 whole entry) above
Chain of KRAS G12D (P01116 1-169 isoform P01116-2 G12D limits assumed): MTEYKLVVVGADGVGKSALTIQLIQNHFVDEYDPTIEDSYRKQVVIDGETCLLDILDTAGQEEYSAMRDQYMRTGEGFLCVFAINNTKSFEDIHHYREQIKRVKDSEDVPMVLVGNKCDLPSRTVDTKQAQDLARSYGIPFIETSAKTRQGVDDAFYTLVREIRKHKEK
Chain of KRAS G12D (P62937 whole entry): as the sequence (P62937 whole entry) above
Chain of KRAS G13C (P01116 1-169 isoform P01116-2 G13C): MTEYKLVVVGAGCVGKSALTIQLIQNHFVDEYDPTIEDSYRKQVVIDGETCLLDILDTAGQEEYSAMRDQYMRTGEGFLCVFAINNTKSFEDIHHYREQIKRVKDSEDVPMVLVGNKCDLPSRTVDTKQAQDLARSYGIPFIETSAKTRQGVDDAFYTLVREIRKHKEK
Chain of KRAS G13C (P62937 whole entry): as the sequence (P62937 whole entry) above
Chain of KRAS WT (P01116 1-169 isoform P01116-2 limits assumed): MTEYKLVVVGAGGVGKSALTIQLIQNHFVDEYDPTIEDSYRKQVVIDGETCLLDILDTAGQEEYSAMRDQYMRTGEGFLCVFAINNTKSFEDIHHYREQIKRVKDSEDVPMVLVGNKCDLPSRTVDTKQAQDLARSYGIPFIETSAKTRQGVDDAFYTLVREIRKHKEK
Chain of KRAS WT (P62937 whole entry): as the sequence (P62937 whole entry) above
Chain of KRAS Q61H (P01116 1-169 isoform P01116-2 Q61H limits assumed): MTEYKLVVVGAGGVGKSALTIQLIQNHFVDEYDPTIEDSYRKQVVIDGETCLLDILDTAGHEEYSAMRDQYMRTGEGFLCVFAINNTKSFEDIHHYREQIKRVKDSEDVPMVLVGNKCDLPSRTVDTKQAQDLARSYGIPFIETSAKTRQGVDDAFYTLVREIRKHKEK
Chain of KRAS Q61H (P62937 whole entry): as the sequence (P62937 whole entry) above
Chain of KRAS G12C (P01116 1-169 isoform P01116-2 G12C): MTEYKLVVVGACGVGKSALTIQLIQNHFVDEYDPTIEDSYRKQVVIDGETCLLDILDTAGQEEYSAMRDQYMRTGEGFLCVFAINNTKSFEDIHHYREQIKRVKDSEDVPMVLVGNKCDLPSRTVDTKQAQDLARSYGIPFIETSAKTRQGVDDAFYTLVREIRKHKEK
Chain of KRAS G12C (P62937 whole entry): as the sequence (P62937 whole entry) above
Chain of NRAS Q61R (P01111 whole entry Q61R, the tested form may be a part): as the sequence (P01111 whole entry Q61K) above, with K61R counted along it
Chain of NRAS Q61R (P62937 whole entry, the tested form may be a part): as the sequence (P62937 whole entry) above
Chain of KRAS G12V (P01116 1-169 isoform P01116-2 G12V limits assumed): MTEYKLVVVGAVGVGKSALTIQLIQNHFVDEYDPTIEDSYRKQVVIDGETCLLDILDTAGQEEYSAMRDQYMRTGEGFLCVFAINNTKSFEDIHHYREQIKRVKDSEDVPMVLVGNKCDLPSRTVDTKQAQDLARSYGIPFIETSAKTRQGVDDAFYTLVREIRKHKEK
Chain of KRAS G12V (P62937 whole entry): as the sequence (P62937 whole entry) above
Chain of NRAS G12C (P01111 whole entry G12C): as the sequence (P01111 whole entry Q61K) above, with G12C, K61Q counted along it
Chain of NRAS G12C (P62937 whole entry): as the sequence (P62937 whole entry) above
Chain of KRAS G13D (P01116 1-169 isoform P01116-2 G13D limits assumed): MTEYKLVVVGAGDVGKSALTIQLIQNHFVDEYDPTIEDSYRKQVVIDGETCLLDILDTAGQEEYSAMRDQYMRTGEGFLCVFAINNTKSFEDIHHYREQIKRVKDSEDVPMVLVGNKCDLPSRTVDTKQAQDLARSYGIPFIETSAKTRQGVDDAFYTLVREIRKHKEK
Chain of KRAS G13D (P62937 whole entry): as the sequence (P62937 whole entry) above

| IC50 [1] [µM] | IC50 [2] [µM] | IC50 [3] [µM] | IC50 [4] [µM] | IC50 ([5]; KRAS G12V FRET data IC50, KRAS G12V) [µM] | IC50 ([6]; KRAS G12C FRET data IC50, KRAS G12C) [µM] | IC50 ([7]; KRAS G13C FRET data IC50, KRAS G13C) [µM] | IC50 ([8]; KRAS G12D FRET data, IC50) [µM] | IC50 ([9]; NRAS G12C FRET data IC50, NRAS G12C) [µM] | IC50 ([10]; KRAS G12S FRET data, IC50) [µM] | IC50 ([11]; KRAS G13D FRET data IC50, KRAS G13D) [µM] | IC50 [5, 13] [µM] | IC50 [6, 14] | IC50 [7, 15] [µM] | IC50 [8, 16] [µM] | IC50 [12] [µM] | IC50 [10, 17] | IC50 ([9]; NRAS G12C, read-out: NRAS G12C FRET data IC50) [µM] | IC50 ([11]; KRAS G13D, read-out: KRAS G13D FRET data IC50) [µM] | Compound |
| --- | --- | --- | --- | --- | --- | --- | --- | --- | --- | --- | --- | --- | --- | --- | --- | --- | --- | --- | --- |
| 0.1 to 1 | > 10 | > 10 | > 10 | 1 to 10 | 0.1 to 1 | 1 to 10 | > 10 | 0.1 to 1 | 1 to 10 | > 10 |  |  |  |  |  |  |  |  | C=CC(=O)N1CC[C@H](C(=O)N(C)[C@H](C(=O)N[C@H]2C[C@H]3CN(CCO3)c3ccc4c(c3)c(c(-c3cccnc3[C@H](C)OC)n4CC)CC(C)(C)COC(=O)[C@@H]3CCCN(N3)C2=O)C(C)C)C1 (racemic) [Example A507] |
|  | > 10 | > 10 | 1 to 10 |  |  |  |  |  |  |  | > 10 | 0.1 to 1 µM | > 10 | > 10 | > 10 | 1 to 10 µM and > 10 µM |  |  | C=CC(=O)N1CC[C@H](C(=O)N(C)[C@H](C(=O)N[C@H]2Cc3cc(O)cc(c3)-c3cc(F)c4c(c3)c(c(-c3ccccc3CCOC)n4CC)CC(C)(C)COC(=O)[C@@H]3CCCN(N3)C2=O)C(C)C)C1 [Example A053] |
|  | > 10 | 1 to 10 | 1 to 10 |  |  |  |  |  |  |  | 1 to 10 | 0.1 to 1 µM | 1 to 10 | > 10 | > 10 | 1 to 10 µM |  |  | C=CC(=O)N1CC[C@H](C(=O)N(C)[C@H](C(=O)N[C@H]2Cc3cc(O)cc(c3)-c3ccc4c(c3)c(c(-c3cccnc3N3CC(OC)C3)n4CC)CC(C)(C)COC(=O)[C@@H]3CCCN(N3)C2=O)C(C)C)C1 [Example A060] |
|  | > 10 | 1 to 10 | 1 to 10 |  |  |  |  |  |  |  | 1 to 10 | 0.1 to 1 µM | 1 to 10 | > 10 | 1 to 10 | 1 to 10 µM |  |  | C=CC(=O)N1CC[C@H](C(=O)N(C)[C@H](C(=O)N[C@H]2Cc3cc(O)cc(c3)-c3ccc4c(c3)c(c(-c3cncnc3)n4CC)CC(C)(C)COC(=O)[C@@H]3CCCN(N3)C2=O)C(C)C)C1 [Example A061] |
|  | 1 to 10 | 1 to 10 | 0.1 to 1 |  |  |  |  |  |  |  | 1 to 10 | 0.01 to 0.1 µM | 1 to 10 | > 10 | 1 to 10 | 0.1 to 1 µM |  |  | C=CC(=O)N1CC[C@H](C(=O)N(C)[C@H](C(=O)N[C@H]2Cc3cc(O)cc(c3)-c3ccc4c(c3)c(c(C3=C(COC)CCCC3)n4CC)CC(C)(C)COC(=O)[C@@H]3CCCN(N3)C2=O)C(C)C)C1 [Example A064] |
|  | 0.1 to 1 | 0.1 to 1 | 0.01 to 0.1 |  |  |  |  |  |  |  | 0.01 to 0.1 | 0.01 to 0.1 µM and < 0.01 µM | 0.01 to 0.1 | 0.1 to 1 | 0.01 to 0.1 | 0.01 to 0.1 µM | < 0.01 | 0.01 to 0.1 | C=CC(=O)N1CC[C@H](C(=O)N(C)[C@H](C(=O)N[C@H]2Cc3cc(O)cc(c3)-c3ccc4c(c3)c(c(-c3cnccc3[C@H](C)OC)n4CC)CC(C)(C)COC(=O)[C@@H]3CCCN(N3)C2=O)C(C)C)C1 [Example A076] |
|  | 1 to 10 | 0.1 to 1 | 0.01 to 0.1 |  |  |  |  |  |  |  | 0.1 to 1 | 0.01 to 0.1 µM | 0.1 to 1 | 1 to 10 | 0.1 to 1 | 0.1 to 1 µM |  |  | C=CC(=O)N1CC[C@H](C(=O)N(C)[C@H](C(=O)N[C@H]2Cc3cc(O)cc(c3)-c3ccc4c(c3)c(c(-c3cnccc3C)n4CC)CC(C)(C)COC(=O)[C@@H]3CCCN(N3)C2=O)C(C)C)C1 [Example A077] |
|  | > 10 | 1 to 10 | 1 to 10 |  |  |  |  |  |  |  | 1 to 10 | 0.1 to 1 µM | > 10 | > 10 | > 10 | > 10 µM |  |  | C=CC(=O)N1CC[C@H](C(=O)N(C)[C@H](C(=O)N[C@H]2Cc3cc(O)cc(c3)-c3ccc4c(c3)c(c(-c3c(CCOC)cccc3OC)n4CC)CC(C)(C)COC(=O)[C@@H]3CCCN(N3)C2=O)C(C)C)C1 [Example A080] |
|  | 0.1 to 1 | 0.1 to 1 | 0.01 to 0.1 |  |  |  |  |  |  |  | 0.1 to 1 | 0.01 to 0.1 µM | 0.1 to 1 | 1 to 10 | 0.1 to 1 | 0.1 to 1 µM |  |  | C=CC(=O)N1CC[C@H](C(=O)N(C)[C@H](C(=O)N[C@H]2Cc3cc(O)cc(c3)-c3ccc4c(c3)c(c(-c3cc(F)cnc3COC)n4CC)CC(C)(C)COC(=O)[C@@H]3CCCN(N3)C2=O)C(C)C)C1 [Example A082] |
|  | 1 to 10 | 1 to 10 | 0.1 to 1 |  |  |  |  |  |  |  | 1 to 10 | 0.01 to 0.1 µM | 1 to 10 | > 10 | 1 to 10 | 0.1 to 1 µM |  |  | C=CC(=O)N1CC[C@H](C(=O)N(C)[C@H](C(=O)N[C@H]2Cc3cc(O)cc(c3)-c3ccc4c(c3)c(c(-c3cncc(COC)c3)n4CC)CC(C)(C)COC(=O)[C@@H]3CCCN(N3)C2=O)C(C)C)C1 [Example A083] |
|  | > 10 | > 10 | 1 to 10 |  |  |  |  |  |  |  | > 10 | 1 to 10 µM | > 10 | > 10 | > 10 | > 10 µM |  |  | C=CC(=O)N1CC[C@H](C(=O)N(C)[C@H](C(=O)N[C@H]2Cc3cc(O)cc(c3)-c3ccc4c(c3)c(c(-c3nccnc3COC)n4CC)CC(C)(C)COC(=O)[C@@H]3CCCN(N3)C2=O)C(C)C)C1 [Example A085] |
|  | 1 to 10 | 0.1 to 1 | 0.1 to 1 |  |  |  |  |  |  |  | 0.1 to 1 | 0.01 to 0.1 µM | 0.1 to 1 | 1 to 10 | 1 to 10 | 0.1 to 1 µM |  |  | C=CC(=O)N1CC[C@H](C(=O)N(C)[C@H](C(=O)N[C@H]2Cc3cc(O)cc(c3)-c3ccc4c(c3)c(c(-c3ccncc3)n4C(C)(C)C#N)CC(C)(C)COC(=O)[C@@H]3CCCN(N3)C2=O)C(C)C)C1 [Example A086] |
|  | 0.1 to 1 | 0.1 to 1 | 0.01 to 0.1 |  |  |  |  |  |  |  | 0.01 to 0.1 | 0.01 to 0.1 µM | 0.1 to 1 | 0.1 to 1 | 0.1 to 1 | 0.01 to 0.1 µM |  |  | CCn1c(-c2cnccc2COC)c2c3cc(ccc31)-c1cc(O)cc(c1)C[C@H](NC(=O)[C@H](C(C)C)N(C)C(=O)[C@H]1CCN(C(=O)/C=C/CN(C)C)C1)C(=O)N1CCC[C@H](N1)C(=O)OCC(C)(C)C2 [Example A087] |
